The source of these data is paper PMC5641083, “Blockage of FOXP3 transcription factor dimerization and FOXP3/AML1 interaction inhibits T regulatory cell activity: sequence optimization of a peptide inhibitor” (Oncotarget, 2017).

The test system of test [1] is CT26 tumor cells. Kind of test: AH1 vaccination and CT26 tumor challenge. It counts as in vivo, BALB/c mice. The settings on record: AH1 in IFA, peptide 10 nanomol/mice/day i.p. 10 days, challenge 10^6 CT26 cells s.c. day 10. The method, then:
In those experiments, BALB/c mice were immunized with peptide AH1 emulsified in IFA and treated daily with saline or with 50 nanomol/mice/day of peptide P60 i.p. from day 0 to day 9 after immunization. To study the efficacy of CM-1315, our optimized version of P60, mice immunized with AH1 were treated with 10 nanomol/mice/day of P60 or CM-1315 and challenged at day 10 by s.c. injection with 10^6 CT26 tumor cells (instead of 5 × 10^5 cells used in our previous study). As control, groups of mice were injected with AH1 alone or left untreated.
For tumor rejection experiments, Hepa-129 cells (10^6 cells/mouse), were injected subcutaneously (sc) in C3H/HeN mice (n = 6). Ten days later, when the tumor reached 5 mm in diameter, mice were randomly divided into different experimental groups. A group of mice were treated i.p. with anti-PD1 antibodies (50 μg/mouse). Antibody administration was repeated one week after this first administration. A group of mice treated with anti-PD1 also received the cyclic peptide CM-1215 from days 10 to 20 (50 μg/mice/day). Tumor size, presented as the average of two perpendicular diameters (millimetres), was measured at regular intervals. Mice were sacrificed when the mean tumor diameter was greater than 20 mm. […] Tumor size was monitored twice a week with a calliper and it was expressed according to the formula V = (length × width^2)/2. […]

Test [2] deals with Treg cells. Kind of test: Treg pre-treated with peptide, then Treg suppression assay. The format is cell-based. The note with it: Treg incubated with peptide at 20 μM for 24 hours, washed. The text has this:
FOXP3 is critical for the development and function of Tregs, but also, FOXP3 can be transiently expressed in effector T cells after TCR stimulation leading to hyporesponsiveness of the effector T cell. […] We speculate that the Foxp3 inhibitory peptides may work at two levels: (i) reducing Treg function and (ii) releasing the brake of FOXP3 transient expression on effector T cells. Thus, we studied the effect of CM-1315 in T cell proliferation and IL-2 and IFN-γ production in effector T cells in response to anti-CD3 stimulation. The original P60, the optimized peptide CM-1315 and a control peptide were tested. […] We also studied the effect of the peptides directly in Tregs. Thus, freshly isolated Treg cells were pre-treated with the peptides for 24 h, and after extensive washing, they were used in conventional Treg suppression assay in coculture with effector T cells and anti-CD3 stimulation.
Supplementary Figure 4: Effect of Foxp3 inhibitory peptides in effector T cells alone. […] T cell proliferation (A) and IL-2 and IFN-γ (B and C) production in response to anti-CD3 stimulation was measured by 3H-thymidine incorporation and by ELISA respectively.
Supplementary Figure 5: Effect of FOXP3 inhibitory peptides in Treg cells. […] T cell proliferation was measured by 3H-thymidine incorporation assay. […]

H-RDFQSFRKMWPFFAM-OH [P60]: in test [1], the “Protection against CT26 tumor challenge (in words)” value is “only animals treated with CM-1315 remained protected”. In test [2], the “Inhibition of suppressive activity of pre-treated Treg (in words)” value was “not able to inhibit significantly Treg cells, although some reversal of suppression was observed”.
